Results reported in patent US9169254B2, “Spiroimidazolone derivative” (Chugai Seiyaku Kabushiki Kaisha, priority 2009, dated 2015).

Biological target: T1, human PTH1 receptor (Homo sapiens, UniProt Q03431)
T1 sequence (Q03431 27-593): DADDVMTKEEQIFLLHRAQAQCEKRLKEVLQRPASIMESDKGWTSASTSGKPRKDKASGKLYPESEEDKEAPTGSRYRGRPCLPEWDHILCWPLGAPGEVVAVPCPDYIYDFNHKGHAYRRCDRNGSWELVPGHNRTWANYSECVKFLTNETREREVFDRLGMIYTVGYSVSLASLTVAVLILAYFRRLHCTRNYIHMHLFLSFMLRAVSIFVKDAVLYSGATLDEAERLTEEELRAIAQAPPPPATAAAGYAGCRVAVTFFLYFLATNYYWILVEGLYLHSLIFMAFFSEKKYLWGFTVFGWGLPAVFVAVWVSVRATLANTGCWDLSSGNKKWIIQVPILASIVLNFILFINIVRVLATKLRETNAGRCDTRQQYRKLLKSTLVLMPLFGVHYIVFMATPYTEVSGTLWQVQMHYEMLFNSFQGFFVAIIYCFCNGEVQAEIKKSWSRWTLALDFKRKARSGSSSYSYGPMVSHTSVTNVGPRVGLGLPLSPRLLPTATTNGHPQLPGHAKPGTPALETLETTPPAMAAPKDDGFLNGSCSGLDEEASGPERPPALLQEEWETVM
Test: In vitro cAMP signal activity in HKRK-B7 cells (LLC-PK1 cells overexpressing the human PTH1 receptor)
Assay type: cell-based
Conditions: HKRK-B7 cells; compound at 1×10^−3 M; cAMP produced as percentage of that produced by hPTH(1-34) at 100 nM

Row | Structure (SMILES) | cAMP production activity (%)
1 | Cc1cc(C(=O)N2CCC[C@H]2CO)ccc1CCS(=O)(=O)N1CCC2(CC1)N=C(c1cccc(C(F)(F)F)c1)NC2=O [Compound 356, 8-{2-[4-((S)-2-hydroxymethyl-pyrrolidine-1-carbonyl)-2-methyl-phenyl]-ethanesulfonyl}-2-(3-trifluoromethyl-phenyl)-1,3,8-triaza-spiro[4.5]dec-1-en-4-one] | 78
2 | O=C1NC([C@@H]2C[C@H]3CC[C@@H]2C3)=NC12CCN(S(=O)(=O)c1cccc(Cl)c1)CC2 [Compound 23, 2-(1R,2R,4S)-bicyclo[2.2.1]hept-2-yl-8-(3-chloro-benzenesulfonyl)-1,3,8-triaza-spiro[4.5]dec-1-en-4-one] | 41
3 | Cc1cc(C(=O)N(C)C)ccc1CCS(=O)(=O)N1CCC2(CC1)N=C(c1cccc(OC(F)(F)F)c1)N/C2=N\O [Compound 900, 4-{2-[4-[(Z)-hydroxyimino]-2-(3-trifluoromethoxy-phenyl)-1,3,8-triaza-spiro[4.5]dec-1-ene-8-sulfonyl]-ethyl}-3,N,N-trimethyl-benzamide] | 90
4 | NCc1ccc(/C=C/S(=O)(=O)N2CCC3(CC2)N=C(C2CCCCC2)NC3=O)cc1 [Compound 687, 8-[(E)-2-(4-aminomethyl-phenyl)-ethenesulfonyl]-2-cyclohexyl-1,3,8-triaza-spiro[4.5]dec-1-en-4-one] | 25
5 | O=C1NC(c2cccc(Cl)c2)=NC12CCN(S(=O)(=O)c1cccc(Cl)c1)CC2 [Compound 6, 8-(3-chloro-benzenesulfonyl)-2-(3-chloro-phenyl)-1,3,8-triaza-spiro[4.5]dec-1-en-4-one] | 4.2
6 | Cc1cccc(C2=NC3(CCN(S(=O)(=O)CCc4ccc(C(=O)N(C)C)cc4C)CC3)C(=O)N2)n1 [Compound 97, 3,N,N-trimethyl-4-{2-[2-(6-methyl-pyridin-2-yl)-4-oxo-1,3,8-triaza-spiro[4.5]dec-1-ene-8-sulfonyl]-ethyl}-benzamide] | 4.3
7 | Cc1cc(N(C)C(N)=O)cc(C)c1/C=C/[S@TB4](=O)(=O)N1CCC2(CC1)N=C(CCCCCCCCCCCF)NC2=O [Compound 1118, 1-(4-{(E)-2-[2-(11-fluoro-undecyl)-4-oxo-1,3,8-triaza-spiro[4.5]dec-1-ene-8-sulfonyl]-vinyl}-3,5-dimethyl-phenyl)-1-methyl-urea] | 79
8 | Cc1cc(C(=O)NN)cc(C)c1/C=C/S(=O)(=O)N1CCC2(CC1)N=C(C1CCC(CCC(F)(F)F)CC1)NC2=O (stereo not shown) [Compound 996, 3,5-Dimethyl-4-((E)-2-{4-oxo-2-[4-(3,3,3-trifluoro-propyl)-cyclohexyl]-1,3,8-triaza-spiro[4.5]dec-1-ene-8-sulfonyl}-vinyl)-benzoic acid hydrazide] | 85
9 | Cc1cc(S(=O)(=O)NCCN2CCOCC2)ccc1CCS(=O)(=O)N1CCC2(CC1)N=C(c1cccc(C(F)(F)F)c1)NC2=O [Compound 292, 3-methyl-N-(2-morpholin-4-yl-ethyl)-4-{2-[4-oxo-2-(3-trifluoromethyl-phenyl)-1,3,8-triaza-spiro[4.5]dec-1-ene-8-sulfonyl]-ethyl}-benzenesulfonamide] | 58
10 | Cc1cc(C(=O)N2CC[C@@H](F)C2)cc(C)c1/C=C/S(=O)(=O)N1CCC2(CC1)N=C(c1cccc(OC(F)(F)F)c1)NC2=O [Compound 959, 8-{(E)-2-[4-((R)-3-Fluoro-pyrrolidine-1-carbonyl)-2,6-dimethyl-phenyl]-ethenesulfonyl}-2-(3-trifluoromethoxy-phenyl)-1,3,8-triaza-spiro[4.5]dec-1-en-4-one] | 77
